Source: PMC12472749, “Balsalazide-Derived Heterotriaryls as Sirtuin 5 Inhibitors: A Case Study of a Reversible Covalent Inhibition Strategy” (Molecules, 2025)
Several values for one entry are separate records, joined by “and”; a condition that tells them apart may be missing. Equal values may be shown once.

Target: T1, hSirt5 (Homo sapiens, UniProt Q9NXA8)
T1 construct: comprised amino acids 37–310 (C-terminal region); His-tag (N); purchased Reaction Biology Corporation (Malvern, PA, USA); host or cells: Escherichia coli
T1 sequence (Q9NXA8 37-310): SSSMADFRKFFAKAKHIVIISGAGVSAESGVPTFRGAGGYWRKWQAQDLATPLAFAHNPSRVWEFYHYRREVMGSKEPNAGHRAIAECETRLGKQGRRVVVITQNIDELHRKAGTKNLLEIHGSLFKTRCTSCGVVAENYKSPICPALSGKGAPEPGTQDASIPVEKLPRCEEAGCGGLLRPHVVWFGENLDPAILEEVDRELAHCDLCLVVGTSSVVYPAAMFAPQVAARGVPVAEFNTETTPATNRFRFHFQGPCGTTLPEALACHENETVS
Assay: fluorescence-based sirtuin 5 assay (Reaction Biology) with substrate Ac-Lys-succ-AMC and NAD+
Assay type: biochemical
Conditions: recombinant sirtuin 5 aa 37-310, 50 µM Ac-Lys-succ-AMC, 10-dose 3-fold dilution, mean of three measurements; read-out: IC50 (hSirt5) [µM] ± SD
Procedure: The synthesized cyclic boronate, cyanomethyl and formylmethyl derivatives of CG_209 and CG_220 were tested for their inhibitory effects against sirtuin 5 using a fluorescence-based assay utilizing a 7-amino-4-methyl coumarin-based succinylated lysine as its substrate. The IC50 values of these compounds were calculated as a mean of three measurements (Table 2). […] Significant loss in the potency of the boronates 51–54 could be observed compared to their lead structures CG_209 and CG_220.
The inhibitory activities of the synthesized target compounds were determined by Reaction Biology Corporation (Malvern, PA, USA) using a fluorescence-based assay. The sirtuin 5 enzyme utilized in this assay was produced in-house by Reaction Biology. The enzyme construct (accession number: NM_012241) comprised amino acids 37–310 (C-terminal region), carried an N-terminal His-tag and was expressed in Escherichia coli. The recombinant protein was purified to >95% purity, as confirmed by SDS-PAGE, and supplied in a solution containing 50 mM Tris-HCl (pH 8.0), 137 mM NaCl, 2.7 mM KCl, 1 mM MgCl2, 1 mg/mL BSA, and 1% DMSO with a protein concentration of 19 nM. Test compounds were prepared at a concentration of 10 mM in DMSO and incubated with 5 µL sirtuin 5 in the assay buffer per well at 30 °C for 10 min in a concentration range between 5 nM and 0.1 mM. 5 µL assay buffer without sirtuin 5 were used for control wells. The deacylation reaction was initiated by the addition of 5 µL substrate mixture comprising 50 µM fluorogenic substrate Ac-Lys-succ-AMC and the co-factor NAD^+. After a 2 h incubation at 30 °C, the reaction was terminated by adding 10 µL protease-based developer with 4 mM nicotinamide, which cleaves 7-amino-4-methylcoumarin to yield a fluorescent signal. Fluorescence was measured after an additional 1 h incubation at 30 °C, with excitation/emission wavelengths of 360/460 nm with EnVision® Plate Reader (Revvity, Waltham, MA, USA). To standardize results, a no-inhibitor control representing 100% enzyme activity was included in all assays. IC50 values for sirtuin 5 inhibition were determined in triplicate using a 10-dose, 3-fold serial dilution series. For each replicate, individual IC50 values were calculated by fitting sigmoidal dose–response curves using Prism 8.0.2 software (GraphPad Software, Boston, MA, USA). The final IC50 values are reported as the mean ± standard deviation of the triplicate measurements.

Compound | IC50
O=C(O)CCNC(=O)c1ccc(-c2cc(-c3ccc(O)c(C(=O)O)c3)no2)cc1 [CG_209] | 11 ± 1 µM
O=C(O)CCNC(=O)c1ccc(-c2cn(-c3ccc(O)c(C(=O)O)c3)nn2)cc1 [CG_220] | 9 ± 2 µM
N#CC[C@H](CC(=O)O)NC(=O)c1ccc(-c2cc(-c3ccc(O)c(C(=O)O)c3)no2)cc1 [Compound 47, (R)-5-(5-(4-((1-Carboxy-3-cyanopropan-2-yl)carbamoyl)phenyl)isoxazol-3-yl)-2-hydroxybenzoic acid] | 97 ± 22 µM
N#CC[C@@H](CC(=O)O)NC(=O)c1ccc(-c2cc(-c3ccc(O)c(C(=O)O)c3)no2)cc1 [Compound 48, (S)-5-(5-(4-((1-Carboxy-3-cyanopropan-2-yl)carbamoyl)phenyl)isoxazol-3-yl)-2-hydroxybenzoic acid] | 65 ± 15 µM
N#CC[C@H](CC(=O)O)NC(=O)c1ccc(-c2cn(-c3ccc(O)c(C(=O)O)c3)nn2)cc1 [Compound 49, (R)-5-(4-(4-((1-Carboxy-3-cyanopropan-2-yl)carbamoyl)phenyl)-1H-1,2,3-triazol-1-yl)-2-hydroxybenzoic acid] | 35 ± 6 µM
N#CC[C@@H](CC(=O)O)NC(=O)c1ccc(-c2cn(-c3ccc(O)c(C(=O)O)c3)nn2)cc1 [Compound 50, (S)-5-(4-(4-((1-Carboxy-3-cyanopropan-2-yl)carbamoyl)phenyl)-1H-1,2,3-triazol-1-yl)-2-hydroxybenzoic acid] | 27 ± 9 µM
CC1(C)OC(=O)c2cc(-c3cc(-c4ccc(C5=N[C@@H](CC(=O)O)CB(O)O5)cc4)on3)ccc2O1 [Compound 51, (R)-2-(6-(4-(3-(2,2-Dimethyl-4-oxo-4H-benzo[d][1,3]dioxin-6-yl)isoxazol-5-yl)phenyl)-2-hydroxy-3,4-dihydro-2H-1,5,2-oxazaborinin-4-yl)acetic acid] | 203 ± 50 µM
CC1(C)OC(=O)c2cc(-c3cc(-c4ccc(C5=N[C@H](CC(=O)O)CB(O)O5)cc4)on3)ccc2O1 [Compound 52, (S)-2-(6-(4-(3-(2,2-Dimethyl-4-oxo-4H-benzo[d][1,3]dioxin-6-yl)isoxazol-5-yl)phenyl)-2-hydroxy-3,4-dihydro-2H-1,5,2-oxazaborinin-4-yl)acetic acid] | 139 ± 18 µM
CC1(C)OC(=O)c2cc(-n3cc(-c4ccc(C5=N[C@@H](CC(=O)O)CB(O)O5)cc4)nn3)ccc2O1 [Compound 53, (R)-2-(6-(4-(1-(2,2-Dimethyl-4-oxo-4H-benzo[d][1,3]dioxin-6-yl)-1H-1,2,3-triazol-4-yl)phenyl)-2-hydroxy-3,4-dihydro-2H-1,5,2-oxazaborinin-4-yl)acetic acid] | 137 ± 63 µM
CC1(C)OC(=O)c2cc(-n3cc(-c4ccc(C5=N[C@H](CC(=O)O)CB(O)O5)cc4)nn3)ccc2O1 [Compound 54, (S)-2-(6-(4-(1-(2,2-Dimethyl-4-oxo-4H-benzo[d][1,3]dioxin-6-yl)-1H-1,2,3-triazol-4-yl)phenyl)-2-hydroxy-3,4-dihydro-2H-1,5,2-oxazaborinin-4-yl)acetic acid] | 61 ± 9 µM
O=CCC(CC(=O)O)NC(=O)c1ccc(-c2cc(-c3ccc(O)c(C(=O)O)c3)no2)cc1 (stereo not drawn) [Compound 61, 5-(5-(4-((1-Carboxy-4-oxobutan-2-yl)carbamoyl)phenyl)isoxazol-3-yl)-2-hydroxybenzoic acid] | 82 ± 3 µM
O=CCC(CC(=O)O)NC(=O)c1ccc(-c2cn(-c3ccc(O)c(C(=O)O)c3)nn2)cc1 (stereo not drawn) [Compound 64, 5-(4-(4-((1-Carboxy-4-oxobutan-2-yl)carbamoyl)phenyl)-1H-1,2,3-triazol-1-yl)-2-hydroxybenzoic acid] | 60 ± 15 µM

Tested on: sirtuin 5
Assay: not given
Conditions: Figure 1, high-throughput screening hits; read-out: IC50 (published sirtuin 5 inhibitor); cited from earlier work

Compound | IC50
O=C1c2c(O)cccc2Cc2cccc(O)c21 [Anthralin, anthralin] | 0.1 µM
O=C(O)CCNC(=O)c1ccc(/N=N/c2ccc(O)c(C(=O)O)c2)cc1 [Balsalazide, balsalazide] | 3.9 µM
C=C1c2cccc(O)c2C(=O)C2=C(O)[C@]3(O)C(=O)C(C(N)=O)=C(O)[C@@H](N(C)C)[C@@H]3[C@@H](O)[C@H]12 [Methacycline, methacycline] | 3.6 µM

Same assay, conditions: Figure 1; read-out: IC50 (published sirtuin 5 inhibitor); cited from earlier work

Compound | IC50
O=c1[nH]c(=S)[nH]c(-c2ccccc2)c1Cc1c(O)ccc2ccccc12 [Cambinol, cambinol] | 43 µM
O=C1Nc2ccc(I)cc2/C1=C/c1cc(Br)c(O)c(Br)c1 [GW5074] | 20 µM
N#C/C(=C\c1ccc(-c2ccc(C(=O)O)cc2)o1)C(=O)Nc1ccc(C#N)c(F)c1 [Liu compound 37] | 5.6 µM
C=CCN1C(=O)/C(=C\c2ccc(-c3cccc(Cl)c3Cl)o2)C(=O)NC1=S [Maurer compound 2] | 2.3 µM

Same assay, conditions: published values of the lead structures; read-out: IC50 (published values of lead structures); cited from earlier work

Compound | IC50
O=C(O)CCNC(=O)c1ccc(-c2cc(-c3ccc(O)c(C(=O)O)c3)no2)cc1 [CG_209] | 12 µM
O=C(O)CCNC(=O)c1ccc(-c2cn(-c3ccc(O)c(C(=O)O)c3)nn2)cc1 [CG_220] | 7 µM and 7.4 µM
